Data from patent US4857540A, “Dopamine-β-hydroxylase inhibitors” (SmithKline Beckman Corporation, priority 1987, dated 1989).
Counter-ions that a name gives are not always drawn. Like-named read-outs stand apart in the source and are kept apart here.

Legend:
[1] = molecular target: T1, dopamine-β-hydroxylase (DBH) (Bos taurus, UniProt P15101); assay: in vitro DBH inhibition, conversion of tyramine to octopamine (absorbance at 330 nm); format: biochemical; details: read-out: DBH inhibition, % at 10^-4 M
T1 sequence (P15101 1-610): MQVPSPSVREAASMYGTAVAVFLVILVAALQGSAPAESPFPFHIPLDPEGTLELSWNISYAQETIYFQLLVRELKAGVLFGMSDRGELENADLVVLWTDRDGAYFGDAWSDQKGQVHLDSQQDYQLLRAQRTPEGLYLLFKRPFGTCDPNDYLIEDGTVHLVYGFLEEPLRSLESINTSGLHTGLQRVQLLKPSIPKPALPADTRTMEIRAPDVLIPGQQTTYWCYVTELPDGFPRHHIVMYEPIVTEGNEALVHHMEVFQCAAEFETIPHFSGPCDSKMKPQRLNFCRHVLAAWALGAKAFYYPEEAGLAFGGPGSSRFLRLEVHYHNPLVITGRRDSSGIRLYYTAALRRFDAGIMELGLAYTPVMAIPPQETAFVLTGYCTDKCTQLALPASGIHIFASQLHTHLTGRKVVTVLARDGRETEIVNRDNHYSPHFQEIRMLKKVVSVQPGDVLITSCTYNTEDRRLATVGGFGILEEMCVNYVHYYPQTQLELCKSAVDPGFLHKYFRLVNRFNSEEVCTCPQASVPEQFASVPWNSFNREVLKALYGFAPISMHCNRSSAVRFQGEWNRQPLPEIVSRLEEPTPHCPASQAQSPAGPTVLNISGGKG

[2] = molecular target: T1, dopamine-β-hydroxylase (DBH); assay: as above; format: biochemical
Procedure: Compounds of the invention and other compounds useful in the method of the invention were screened for in vitro DBH inhibition by a standard procedure for assaying conversion of tyramine to octopamine in the presence of DBH. Octopamine was assayed following sodium periodate oxidation to p-hydroxybenzaldehyde by measuring spectrophotometric absorbance at 330 nm. Inhibition is given in molar concentration of compound at which DBH activity was halved (IC50). Melting points (mp) are given in °C.

[3] = tested on: peripheral dopamine (DA) and norepinephrine (NE) levels; assay: effects in vivo on peripheral dopamine (DA) and norepinephrine (NE) levels; parameters: species or system Spontaneously hypertensive rats; details: dosed twice about 18 hours apart, sacrificed about 2 hours after second dose, mean of 5 animals; for DA / NE: per gram of tissue
Procedure: Various compounds of the invention were tested for their effects in vivo on peripheral dopamine (DA) and norepinephrine (NE) levels substantially by the procedure of DaPrada and Zurcher, Life Sci., 19, 1161, (1976). Spontaneously hypertensive rats were dosed twice, the second dose being abut 18 hours after the first, and were sacrificed about 2 hours after the second dose.

[4] = Teresawa et al., Japan, Cir. J. 35, 339 (1971); cited from earlier work
[5] = mean arterial blood pressure, indwelling cannulae in tail artery; format: in vivo, Spontaneously hypertensive rats; details: 50 mg/kg i.p.
Procedure: Further, the same rats were dosed with a suspension or solution at a dose of 50 mg/kg of test compound i.p. and mean arterial blood pressure determined with indwelling cannulae inserted into the tail artery.

[6] = in vitro, tyramine to octopamine, read-out: IC50 value (molar concentration of compound at which DBH activity was halved)

## Sc1nc2ccccc2n1Cc1c(Cl)cccc1Cl [Example 2, 1-(2,6-dichlorobenzyl)-2-mercaptobenzimidazole]
[1]
  inhibition at 100 µM: 60%

## Oc1c(Cl)cc(Cn2c(S)nc3ccccc32)cc1Cl [Example 8, 1-(3,5-dichloro-4-hydroxybenzyl)-2-mercaptobenzimidazole]
[2]; [6]
  IC50: 3.8 µM

## Sc1nc2ccccc2n1Cc1ccccc1 [Example 5, N-benzyl-2-mercaptobenzimidazole]
[2]; [6]
  IC50: 61 µM

## Oc1ccc(Cn2c(S)nc3ccccc32)cc1 [Example 10, 1-(4-hydroxybenzyl)-2-mercaptobenzimidazole]
[2]; [6]
  IC50: 13 µM

## COc1c(F)cc(Cn2c(S)nc3ccccc32)cc1F [Example 3, 1-(3,5-difluoro-4-methoxybenzyl)-2-mercaptobenzimidazole]
[3]
  DA/NE Ratio: 0.055
  DA: 0.397 µg/g
  NE: 7.82 µg/g

## CCCCc1ccc(C(=O)O)nc1 [fusaric acid, reference compound]
[2]
  IC50: ~0.8 µM
[4]
  hepatotoxicity: hepatotoxic

## Oc1c(F)cc(Cn2c(S)nc3ccccc32)cc1F [Example 9, 1-(3,5-difluoro-4-hydroxybenzyl)-2-mercaptobenzimidazole]
[2]; [6]
  IC50: 0.66 µM

## Sc1nc2ccccc2n1Cc1cc(Cl)cc(Cl)c1 [Example 4, 1-(3,5-dichlorobenzyl)-2-mercaptobenzimidazole]
[1]
  inhibition at 100 µM: 70%

## NCc1nc2ccccc2n1Cc1ccccc1 [Example 37, 1-Benzyl-2-aminomethylbenzimidazole hydrochloride]
[2]; [6]
  IC50: 0.12 µM

## COc1ccc(Cn2c(S)nc3ccccc32)cc1 [Example 7, 1-(4-methoxybenzyl)-2-mercaptobenzimidazole]
[1]
  inhibition at 100 µM: 6%

## NCc1nc2ccccc2n1Cc1cccc(F)c1 [Example 39, 1-[3-fluorobenzyl]-2-aminomethylbenzimidazole dihydrofluoride]
[2]; [6]
  IC50: 130 µM

## NCc1nc2ccccc2n1Cc1cccc(Cl)c1 [Example 40, 1-[3-chlorobenzyl]-2-aminomethylbenzimidazole dihydrochloride]
[2]; [6]
  IC50: 113 µM

## Fc1cc(F)cc(Cn2c(S)nc3ccccc32)c1 [Example 6, 1-(3,5-difluorobenzyl)-2-mercaptobenzimidazole]
[3]
  DA/NE Ratio: 0.086
  DA: 0.607 µg/g
  NE: 7.054 µg/g
[2]; [6]
  IC50: 6.2 µM
[5]
  mean arterial pressure: significant reduction in mean arterial pressure

## NCc1nc2ccccc2n1Cc1ccc(Cl)c(Cl)c1 [Example 38, 1-[3,4-Dichlorobenzyl]-2-aminomethylbenzimidazole dihydrochloride]
[2]; [6]
  IC50: 69 µM
